Assay results published in patent US8952024B2, “Herbicidal pyrimidone derivatives” (E I du Pont de Nemours and Company, priority 2009, dated 2015).

What was measured:
Type in all cases: in vivo
[1] = tested on: canarygrass (Phalaris minor); assay: Test B postemergence plant response; settings: Postemergence
Method in brief: (§1)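 Plants at the 1- to 4-leaf stage (2 to 18 cm tall), grown in pots of peat moss/vermiculite medium with wetting agent and starter nutrients, received postemergence applications of test chemicals. After 13 to 15 days in a greenhouse, injury was rated visually against untreated controls on a 0 (no effect) to 100 (complete control) scale.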

[2] = tested on: chickweed (Stellaria media); assay: Test B postemergence plant response; settings: Postemergence
Method in brief: as §1

[3] = tested on: winter barley (Hordeum vulgare); assay: Test B postemergence plant response; settings: Postemergence
Method in brief: as §1

[4] = tested on: johnsongrass (Sorghum halepense); assay: Test B pre-/postemergence plant response
Method in brief: (§2)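 Pre-em in loam/sand; post-em at 1–4 leaf (2–18 cm) in peat mix. Solvent + surfactant formulation. Greenhouse 13–15 d; visual % control vs untreated, 0–100.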

[5] = tested on: goosegrass (Eleusine indica); assay: Test B pre-/postemergence plant response
Method in brief: as §2

[6] = tested on: bermudagrass (Cynodon dactylon); assay: Test B pre-/postemergence plant response
Method in brief: as §2

[7] = tested on: giant foxtail (Setaria faberii); assay: Test B pre-/postemergence plant response
Method in brief: as §2

[8] = tested on: blackgrass (Alopecurus myosuroides); assay: Test B pre-/postemergence plant response
Method in brief: as §2

[9] = tested on: velvetleaf (Abutilon theophrasti); assay: Test B pre-/postemergence plant response
Method in brief: as §2

soybean (Glycine max) = assay: Test B pre-/postemergence plant response
Method in brief: as §2

[10] = tested on: pigweed (Amaranthus retroflexus); assay: Test B pre-/postemergence plant response
Method in brief: as §2

[11] = tested on: ragweed (common ragweed, Ambrosia elatior); assay: Test B pre-/postemergence plant response
Method in brief: as §2

[12] = tested on: green foxtail (Setaria viridis); assay: Test B pre-/postemergence plant response
Method in brief: as §2

[13] = tested on: morningglory (Ipomoea coccinea); assay: Test B pre-/postemergence plant response
Method in brief: as §2

[14] = tested on: downy bromegrass (Bromus tectorum); assay: Test B pre-/postemergence plant response
Method in brief: as §2

corn (Zea mays) = assay: Test B pre-/postemergence plant response
Method in brief: as §2

[15] = tested on: wheat (Triticum aestivum); assay: Test B pre-/postemergence plant response
Method in brief: as §2

[16] = tested on: Italian ryegrass (Lolium multiflorum); assay: Test B pre-/postemergence plant response
Method in brief: as §2

[17] = 31 g ai/ha, scale 0 to 100 (0 no effect, 100 complete control)
[18] = 62 g ai/ha, scale 0 (no effect) to 100 (complete control), 13 to 15 days
[19] = 125 g ai/ha, visual rating after 13 to 15 days, scale 0 (no effect) to 100 (complete control)
[20] = 250 g ai/ha, Preemergence, 0 to 100 scale
[21] = Postemergence, 62 g ai/ha, scale 0 (no effect) to 100 (complete control), 13 to 15 days
[22] = Postemergence, 125 g ai/ha, visual rating after 13 to 15 days, scale 0 (no effect) to 100 (complete control)
[23] = Postemergence, 250 g ai/ha, scale 0 to 100
[24] = Preemergence, 31 g ai/ha, scale 0 to 100 (0 no effect, 100 complete control)
[25] = Preemergence, 62 g ai/ha, scale 0 to 100, 0 no effect, 100 complete control
[26] = Preemergence, 125 g ai/ha, 0 to 100 scale
[27] = Postemergence, 31 g ai/ha, scale 0 to 100 (0 no effect, 100 complete control)

## Cc1cccc(-n2c(-c3cccc(Cl)c3)ncc(C(=O)C3=C(O)CCCC3=O)c2=O)c1 [Compound 45]
[1]; [17]
  Plant response rating, Canarygrass: 10
[1]; [18]
  Plant response rating, Canarygrass: 10
[1]; [19]
  Plant response rating, Canarygrass: 30
[1]; 250 g ai/ha, scale 0 to 100
  Canarygrass plant response rating: 30
[2]; [17]
  Plant response rating, Chickweed: 75
[2]; [18]
  Plant response rating, Chickweed: 85
[2]; [19]
  Plant response rating, Chickweed: 98
[2]; 250 g ai/ha, scale 0 to 100
  Chickweed plant response rating: 100
[3]; [17]
  Plant response rating, Barley: 5
[3]; [18]
  Plant response rating, Barley: 5
[3]; [19]
  Plant response rating, Barley: 5
[3]; 250 g ai/ha, scale 0 to 100
  Barley plant response rating: 5
[4]; [20]
  Plant response rating, Johnsongrass: 85
[4]; [21]
  Plant response rating, Johnsongrass: 90
[4]; [22]
  Plant response rating, Johnsongrass: 98
[4]; [23]
  Johnsongrass plant response rating: 100
[4]; [24]
  Plant response rating, Johnsongrass: 0
[4]; [25]
  Plant response rating, Johnsongrass: 45
[4]; [26]
  Johnsongrass plant response rating: 75
[5]; [20]
  Plant response rating, Goosegrass: 100
[5]; [21]
  Plant response rating, Goosegrass: 75
[5]; [22]
  Plant response rating, Goosegrass: 80
[5]; [23]
  Goosegrass plant response rating: 90
[5]; [24]
  Plant response rating, Goosegrass: 80
[5]; [26]
  Goosegrass plant response rating: 100
[6]; [20]
  Plant response rating, Bermudagrass: 100
[6]; [27]
  Plant response rating, Bermudagrass: 80
[6]; [21]
  Plant response rating, Bermudagrass: 85
[6]; [22]
  Plant response rating, Bermudagrass: 95
[6]; [23]
  Bermudagrass plant response rating: 100
[6]; [24]
  Plant response rating, Bermudagrass: 98
[6]; [25]
  Plant response rating, Bermudagrass: 100
[6]; [26]
  Bermudagrass plant response rating: 100
[7]; [20]
  Plant response rating, Foxtail, Giant: 75
[7]; [27]
  Plant response rating, Foxtail, Giant: 75
[7]; [21]
  Plant response rating, Foxtail, Giant: 90
[7]; [22]
  Plant response rating, Foxtail, Giant: 95
[7]; [23]
  Foxtail, Giant plant response rating: 98
[7]; [24]
  Plant response rating, Foxtail, Giant: 0
[7]; [25]
  Plant response rating, Foxtail, Giant: 0
[7]; [26]
  Foxtail, Giant plant response rating: 45
[8]; [20]
  Plant response rating, Blackgrass: 5
[8]; [27]
  Plant response rating, Blackgrass: 5
[8]; [21]
  Plant response rating, Blackgrass: 5
[8]; [22]
  Plant response rating, Blackgrass: 10
[8]; [23]
  Blackgrass plant response rating: 25
[8]; [24]
  Plant response rating, Blackgrass: 0
[8]; [25]
  Plant response rating, Blackgrass: 0
[8]; [26]
  Blackgrass plant response rating: 0
[9]; [20]
  Plant response rating, Velvetleaf: 95
[9]; [21]
  Plant response rating, Velvetleaf: 80
[9]; [22]
  Plant response rating, Velvetleaf: 90
[9]; [24]
  Plant response rating, Velvetleaf: 0
[9]; [26]
  Velvetleaf plant response rating: 85
Soybean (Glycine max); [20]
  Plant response rating, Soybean: 0
Soybean (Glycine max); [21]
  Plant response rating, Soybean: 95
Soybean (Glycine max); [22]
  Plant response rating, Soybean: 98
Soybean (Glycine max); [24]
  Plant response rating, Soybean: 0
Soybean (Glycine max); [26]
  Soybean plant response rating: 0
[10]; [20]
  Plant response rating, Pigweed: 100
[10]; [21]
  Plant response rating, Pigweed: 98
[10]; [22]
  Plant response rating, Pigweed: 100
[10]; [24]
  Plant response rating, Pigweed: 85
[10]; [26]
  Pigweed plant response rating: 100
[11]; [20]
  Plant response rating, Ragweed: 95
[11]; [21]
  Plant response rating, Ragweed: 85
[11]; [22]
  Plant response rating, Ragweed: 95
[11]; [24]
  Plant response rating, Ragweed: 45
[11]; [26]
  Ragweed plant response rating: 80
[12]; [20]
  Plant response rating, Foxtail, Green: 100
[12]; [27]
  Plant response rating, Foxtail, Green: 50
[12]; [21]
  Plant response rating, Foxtail, Green: 80
[12]; [22]
  Plant response rating, Foxtail, Green: 85
[12]; [23]
  Foxtail, Green plant response rating: 95
[12]; [24]
  Plant response rating, Foxtail, Green: 0
[12]; [25]
  Plant response rating, Foxtail, Green: 80
[12]; [26]
  Foxtail, Green plant response rating: 80
[13]; [20]
  Plant response rating, Morningglory: 0
[13]; [21]
  Plant response rating, Morningglory: 75
[13]; [22]
  Plant response rating, Morningglory: 80
[13]; [24]
  Plant response rating, Morningglory: 0
[14]; [20]
  Plant response rating, Bromegrass, Downy: 5
[14]; [27]
  Plant response rating, Bromegrass, Downy: 10
[14]; [21]
  Plant response rating, Bromegrass, Downy: 20
[14]; [22]
  Plant response rating, Bromegrass, Downy: 45
[14]; [23]
  Bromegrass, Downy plant response rating: 50
[14]; [24]
  Plant response rating, Bromegrass, Downy: 0
[14]; [25]
  Plant response rating, Bromegrass, Downy: 0
[14]; [26]
  Bromegrass, Downy plant response rating: 0
Corn (Zea mays); [20]
  Plant response rating, Corn: 0
Corn (Zea mays); [27]
  Plant response rating, Corn: 10
Corn (Zea mays); [21]
  Plant response rating, Corn: 45
Corn (Zea mays); [22]
  Plant response rating, Corn: 60
Corn (Zea mays); [23]
  Corn plant response rating: 80
Corn (Zea mays); [24]
  Plant response rating, Corn: 0
Corn (Zea mays); [25]
  Plant response rating, Corn: 0
Corn (Zea mays); [26]
  Corn plant response rating: 0
[15]; [20]
  Plant response rating, Wheat: 0
[15]; [21]
  Plant response rating, Wheat: 15
[15]; [22]
  Plant response rating, Wheat: 15
[15]; [24]
  Plant response rating, Wheat: 0
[15]; [26]
  Wheat plant response rating: 0
[16]; [20]
  Plant response rating, Ryegrass, Italian: 0
[16]; [21]
  Plant response rating, Ryegrass, Italian: 30
[16]; [22]
  Plant response rating, Ryegrass, Italian: 35
[16]; [24]
  Plant response rating, Ryegrass, Italian: 0
[16]; [26]
  Ryegrass, Italian plant response rating: 0
